Experimental findings from patent publication US10583135B2, “Compositions for treating CMT and related disorders” (Pharnext, priority 2009, dated 2020) are described below.

The test system of the assay is Myelin Basic Protein (MBP) expression. In words: MBP expression in PMP22 TG sensory neuron/Schwann cell co-cultures (in vitro model of CMT1A). The class given is cell-based, rat. Particulars: day 10 (=17 days of culture), doses 1 and 6, in presence of ascorbic acid, compared to control. The protocol:
A model of co-culture was used as an in vitro model of CMT1A. This model of myelination consists in co-culturing sensory neurons and Schwann cells from male PMP22 Transgenic (TG) dissociated Dorsal Root Ganglia (DRG).
The aim of this study is to assess the effect of 3 test compounds (+/− baclofen, naltrexone and sorbitol) and Mix7 (a mixture of these 3 drugs) on myelination process. The effect of the 3 test compounds, and their mixture on myelination, are assessed by evaluating Myelin Basic Protein (MBP) expression in presence of ascorbic acid.
Each embryo is dispatched on numerating petri dish (35 mm of diameter). The head of embryo is cut, placed on 1.5 ml tube DNAase free; the ADN is extracted with the Extract-N-Amp Tissue Kit (Sigma Aldrich). The genotyping (Male (M) and female (F), wild type and PMP22 transgenic) is performed with the kit Fast SYBR Green Master Mix (Applied Biosystem). This genotyping is performed in parallel of the dissection of dorsal root ganglia (DRG), so that at the end of the dissection, only one type of culture (DRG from transgenic male) is done. DRG of each embryo is collected, placed in ice-cold medium of Leibovitz (L15, Invitrogen). At the end of the dissection, DRG of TGM are pooled and dissociated by trypsinization (trypsin EDTA, 0.05%; Invitrogen) for 20 min at 37° C. The reaction is stopped by addition of DMEM containing 10% of fetal bovine serum (FBS) in the presence of DNAase I (Roche). The suspension is triturated with a 10 ml pipette. Cells are then centrifuged at 350×g for 10 min at room temperature. […] Viable cells are counted in a Neubauer cytometer using the trypan blue exclusion test (Sigma) and seeded on the basis of 10 000 cells per well in 96 well-plates (Greiner) treated with poly-L-lysine. […]
Three separate and independent cultures of DRG (from TG embryos male rats) are done. These conditions are assessed in presence of ascorbic acid, 6 wells per condition. The solution ready to use of all test compounds are extemporaneously prepared from a stock solution, stored at −20° C. […]
In the case of `NCC(CC(=O)O)c1ccc(Cl)cc1` (racemic) [(RS)-baclofen], the MBP expression entry is “no substantial effect”.
As for `OC[C@@H](O)[C@@H](O)[C@H](O)[C@@H](O)CO` [D-sorbitol], the MBP expression entry is “no substantial effect”.
Next, `O=C1CC[C@@]2(O)[C@H]3Cc4ccc(O)c5c4[C@@]2(CCN3CC2CC2)[C@H]1O5` [naltrexone]: “no substantial effect”.
